Experiments:
pigweed, palmer [1] = test: Test C preemergence; format: in vivo, Amaranthus palmeri; conditions: 0 to 100 scale (0 no effect, 100 complete control); for Plant response rating, Pigweed, Palmer: Preemergence, 500 g ai/ha, visual rating after 10 days
Summary of the method: (§1)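 Test material, in non-phytotoxic solvent with surfactant, was sprayed on the soil directly after seeding (preemergence) or on young plants of 2–10 cm with one to two leaves (postemergence). Greenhouse, 10 days; 0–100 visual control scale.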

ragweed [2] = test: Test C preemergence; format: in vivo, Ambrosia artemisiifolia; conditions: 0 to 100 scale (0 no effect, 100 complete control); for Plant response rating, Ragweed: Preemergence, 500 g ai/ha, visual rating after 10 days; for Ragweed plant response rating: Test C, preemergence, 125 g ai/ha
Summary of the method: as §1

soybean [3] = test: Test C postemergence; format: in vivo, Glycine max; conditions: 10 days
Summary of the method: as §1

oat, wild [4] = test: Test C preemergence; format: in vivo, Avena fatua; conditions: 0 to 100 scale (0 no effect, 100 complete control); for Plant response rating, Oat, Wild: Preemergence, 500 g ai/ha, visual rating after 10 days; for Oat, Wild plant response rating: Test C, preemergence, 125 g ai/ha
Summary of the method: as §1

blackgrass [5] = test: Test C postemergence; format: in vivo, Alopecurus myosuroides; conditions: 10 days
Summary of the method: as §1

ryegrass, Italian [6] = test: Test C preemergence; format: in vivo, Lolium multiflorum; conditions: 0 to 100 scale (0 no effect, 100 complete control); for Plant response rating, Ryegrass, Italian: Preemergence, 500 g ai/ha, visual rating after 10 days; for Ryegrass, Italian plant response rating: Test C, preemergence, 125 g ai/ha
Summary of the method: as §1

green foxtail [7] = test: Test C postemergence; format: in vivo, Setaria viridis; conditions: 10 days
Summary of the method: as §1

barnyardgrass [8] = test: Test C preemergence; format: in vivo, Echinochloa crusgalli; conditions: 0 to 100 scale (0 no effect, 100 complete control); for Plant response rating, Barnyardgrass: Preemergence, 500 g ai/ha, visual rating after 10 days; for Barnyardgrass plant response rating: Test C, preemergence, 125 g ai/ha
Summary of the method: as §1

barnyardgrass [9] = test: Test D flooded paddy test; format: in vivo, Echinochloa crus-galli; conditions: 250 g ai/ha, applied to paddy water, visual rating after 13 to 14 days, scale 0 to 100 (0 no effect, 100 complete control)
Summary of the method: (§2)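 At the 2-leaf stage, floodwater 3 cm deep received the test compound; that depth persisted throughout. Plants scored visually 13 to 14 days on, 0 (no effect) to 100 (complete control), dash indicating no result.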

horseweed = test: Test C postemergence; format: in vivo, Erigeron canadensis; conditions: 10 days
Summary of the method: as §1

sedge, umbrella = test: Test D flooded paddy test; format: in vivo, Cyperus difformis; conditions: 250 g ai/ha, applied to paddy water, visual rating after 13 to 14 days, scale 0 to 100 (0 no effect, 100 complete control)
Summary of the method: as §2

corn [10] = test: Test C postemergence; format: in vivo, Zea mays; conditions: 10 days
Summary of the method: as §1

kochia [11] = test: Test C postemergence; format: in vivo, Bassia scoparia; conditions: 10 days
Summary of the method: as §1

soybean [12] = test: Test C preemergence; format: in vivo, Glycine max; conditions: 0 to 100 scale (0 no effect, 100 complete control); for Plant response rating, Soybean: Preemergence, 500 g ai/ha, visual rating after 10 days; for Soybean plant response rating: Test C, preemergence, 125 g ai/ha
Summary of the method: as §1

rice = test: Test D flooded paddy test; format: in vivo, Oryza sativa; conditions: 250 g ai/ha, applied to paddy water, visual rating after 13 to 14 days, scale 0 to 100 (0 no effect, 100 complete control)
Summary of the method: as §2

wheat [13] = test: Test C postemergence; format: in vivo, Triticum aestivum; conditions: 10 days
Summary of the method: as §1

kochia [14] = test: Test C preemergence; format: in vivo, Bassia scoparia; conditions: 0 to 100 scale (0 no effect, 100 complete control); for Plant response rating, Kochia: Preemergence, 500 g ai/ha, visual rating after 10 days; for Kochia plant response rating: Test C, preemergence, 125 g ai/ha
Summary of the method: as §1

corn [15] = test: Test C preemergence; format: in vivo, Zea mays; conditions: 0 to 100 scale (0 no effect, 100 complete control); for Plant response rating, Corn: Preemergence, 500 g ai/ha, visual rating after 10 days; for Corn plant response rating: Test C, preemergence, 125 g ai/ha
Summary of the method: as §1

ducksalad = test: Test D flooded paddy test; format: in vivo, Heteranthera limosa; conditions: 250 g ai/ha, applied to paddy water, visual rating after 13 to 14 days, scale 0 to 100 (0 no effect, 100 complete control)
Summary of the method: as §2

blackgrass [16] = test: Test C preemergence; format: in vivo, Alopecurus myosuroides; conditions: 0 to 100 scale (0 no effect, 100 complete control); for Plant response rating, Blackgrass: Preemergence, 500 g ai/ha, visual rating after 10 days; for Blackgrass plant response rating: Test C, preemergence, 125 g ai/ha
Summary of the method: as §1

ryegrass, Italian [17] = test: Test C postemergence; format: in vivo, Lolium multiflorum; conditions: 10 days
Summary of the method: as §1

oat, wild [18] = test: Test C postemergence; format: in vivo, Avena fatua; conditions: 10 days
Summary of the method: as §1

ragweed [19] = test: Test C postemergence; format: in vivo, Ambrosia artemisiifolia; conditions: 10 days
Summary of the method: as §1

barnyardgrass [20] = test: Test C postemergence; format: in vivo, Echinochloa crusgalli; conditions: 10 days
Summary of the method: as §1

wheat [21] = test: Test C preemergence; format: in vivo, Triticum aestivum; conditions: 0 to 100 scale (0 no effect, 100 complete control); for Plant response rating, Wheat: Preemergence, 500 g ai/ha, visual rating after 10 days; for Wheat plant response rating: Test C, preemergence, 125 g ai/ha
Summary of the method: as §1

green foxtail [22] = test: Test C preemergence; format: in vivo, Setaria viridis; conditions: 0 to 100 scale (0 no effect, 100 complete control); for Plant response rating, Foxtail, Green: Preemergence, 500 g ai/ha, visual rating after 10 days; for Foxtail, Green plant response rating: Test C, preemergence, 125 g ai/ha
Summary of the method: as §1

pigweed, palmer [23] = test: Test C postemergence; format: in vivo, Amaranthus palmeri; conditions: 10 days
Summary of the method: as §1

[24] = 125 g ai/ha, postemergence, 0 to 100 scale, 0 no effect, 100 complete control
[25] = Postemergence, 500 g ai/ha, visual 0 to 100 scale (0 no effect, 100 complete control)

COc1cc(C(=O)N2C[C@H](C)Oc3c(Cl)cccc32)cc(-n2cnc(C)n2)c1 [Compound 215]
Plant response rating, Pigweed, Palmer (pigweed, palmer [1]): 100 | Pigweed, Palmer plant response rating (pigweed, palmer [1]; Test C, preemergence, 125 g ai/ha): 100 | Plant response rating, Ragweed (ragweed [2]): 30 | Ragweed plant response rating (ragweed [2]): 0 | Plant response rating, Soybean (soybean [3]; [24]): 100 | Plant response rating, Soybean (soybean [3]; [25]): 100 | Plant response rating, Oat, Wild (oat, wild [4]): 90 | Oat, Wild plant response rating (oat, wild [4]): 50 | Plant response rating, Blackgrass (blackgrass [5]; [24]): 90 | Plant response rating, Blackgrass (blackgrass [5]; [25]): 90 | Plant response rating, Ryegrass, Italian (ryegrass, Italian [6]): 100 | Ryegrass, Italian plant response rating (ryegrass, Italian [6]): 90 | Plant response rating, Foxtail, Green (green foxtail [7]; [24]): 90 | Plant response rating, Foxtail, Green (green foxtail [7]; [25]): 90 | Plant response rating, Barnyardgrass (barnyardgrass [8]): 100 | Barnyardgrass plant response rating (barnyardgrass [8]): 80 | Plant response rating, Barnyardgrass (Flood) (barnyardgrass [9]): 50 | Plant response rating, Horseweed (horseweed; [24]): 0 | Plant response rating, Horseweed (horseweed; [25]): 70 | Plant response rating, Sedge, Umbrella (Flood) (sedge, umbrella): 100 | Plant response rating, Corn (corn [10]; [24]): 70 | Plant response rating, Corn (corn [10]; [25]): 90 | Plant response rating, Kochia (kochia [11]; [24]): 80 | Plant response rating, Kochia (kochia [11]; [25]): 90 | Plant response rating, Soybean (soybean [12]): 100 | Soybean plant response rating (soybean [12]): 80 | Plant response rating, Rice (Flood) (rice): 55 | Plant response rating, Wheat (wheat [13]; [24]): 30 | Plant response rating, Wheat (wheat [13]; [25]): 70 | Plant response rating, Kochia (kochia [14]): 100 | Kochia plant response rating (kochia [14]): 90 | Plant response rating, Corn (corn [15]): 60 | Corn plant response rating (corn [15]): 30 | Plant response rating, Ducksalad (Flood) (ducksalad): 100 | Plant response rating, Blackgrass (blackgrass [16]): 90 | Blackgrass plant response rating (blackgrass [16]): 70 | Plant response rating, Ryegrass, Italian (ryegrass, Italian [17]; [24]): 70 | Plant response rating, Ryegrass, Italian (ryegrass, Italian [17]; [25]): 90 | Plant response rating, Oat, Wild (oat, wild [18]; [24]): 30 | Plant response rating, Oat, Wild (oat, wild [18]; [25]): 50 | Plant response rating, Ragweed (ragweed [19]; [24]): 60 | Plant response rating, Ragweed (ragweed [19]; [25]): 70 | Plant response rating, Barnyardgrass (barnyardgrass [20]; [24]): 60 | Plant response rating, Barnyardgrass (barnyardgrass [20]; [25]): 70 | Plant response rating, Wheat (wheat [21]): 90 | Wheat plant response rating (wheat [21]): 20 | Plant response rating, Foxtail, Green (green foxtail [22]): 100 | Foxtail, Green plant response rating (green foxtail [22]): 100 | Plant response rating, Pigweed, Palmer (pigweed, palmer [23]; [24]): 90 | Plant response rating, Pigweed, Palmer (pigweed, palmer [23]; [25]): 100

Cc1cn(-c2cccc(C(=O)N3C[C@H](C)Oc4c(C)cccc43)c2)cn1 [Compound 232]
Plant response rating, Pigweed, Palmer (pigweed, palmer [1]): 0 | Plant response rating, Ragweed (ragweed [2]): 0 | Ragweed plant response rating (ragweed [2]): 0 | Plant response rating, Soybean (soybean [3]; [24]): 100 | Plant response rating, Soybean (soybean [3]; [25]): 100 | Plant response rating, Oat, Wild (oat, wild [4]): 0 | Oat, Wild plant response rating (oat, wild [4]): 0 | Plant response rating, Blackgrass (blackgrass [5]; [24]): 0 | Plant response rating, Blackgrass (blackgrass [5]; [25]): 50 | Plant response rating, Ryegrass, Italian (ryegrass, Italian [6]): 20 | Ryegrass, Italian plant response rating (ryegrass, Italian [6]): 20 | Plant response rating, Foxtail, Green (green foxtail [7]; [24]): 0 | Plant response rating, Foxtail, Green (green foxtail [7]; [25]): 30 | Plant response rating, Barnyardgrass (barnyardgrass [8]): 0 | Barnyardgrass plant response rating (barnyardgrass [8]): 0 | Plant response rating, Barnyardgrass (Flood) (barnyardgrass [9]): 0 | Plant response rating, Horseweed (horseweed; [24]): 0 | Plant response rating, Horseweed (horseweed; [25]): 0 | Plant response rating, Sedge, Umbrella (Flood) (sedge, umbrella): 0 | Plant response rating, Corn (corn [10]; [24]): 0 | Plant response rating, Corn (corn [10]; [25]): 0 | Plant response rating, Kochia (kochia [11]; [24]): 0 | Plant response rating, Kochia (kochia [11]; [25]): 60 | Plant response rating, Soybean (soybean [12]): 0 | Soybean plant response rating (soybean [12]): 0 | Plant response rating, Rice (Flood) (rice): 0 | Plant response rating, Wheat (wheat [13]; [24]): 10 | Plant response rating, Wheat (wheat [13]; [25]): 10 | Plant response rating, Kochia (kochia [14]): 0 | Kochia plant response rating (kochia [14]): 0 | Plant response rating, Corn (corn [15]): 0 | Corn plant response rating (corn [15]): 0 | Plant response rating, Ducksalad (Flood) (ducksalad): 0 | Plant response rating, Blackgrass (blackgrass [16]): 0 | Blackgrass plant response rating (blackgrass [16]): 0 | Plant response rating, Ryegrass, Italian (ryegrass, Italian [17]; [24]): 30 | Plant response rating, Ryegrass, Italian (ryegrass, Italian [17]; [25]): 60 | Plant response rating, Oat, Wild (oat, wild [18]; [24]): 0 | Plant response rating, Oat, Wild (oat, wild [18]; [25]): 0 | Plant response rating, Ragweed (ragweed [19]; [24]): 0 | Plant response rating, Ragweed (ragweed [19]; [25]): 30 | Plant response rating, Barnyardgrass (barnyardgrass [20]; [24]): 10 | Plant response rating, Barnyardgrass (barnyardgrass [20]; [25]): 20 | Plant response rating, Wheat (wheat [21]): 0 | Wheat plant response rating (wheat [21]): 0 | Plant response rating, Foxtail, Green (green foxtail [22]): 0 | Foxtail, Green plant response rating (green foxtail [22]): 0 | Plant response rating, Pigweed, Palmer (pigweed, palmer [23]; [24]): 0 | Plant response rating, Pigweed, Palmer (pigweed, palmer [23]; [25]): 10

From US20260262643A1, “HERBICIDAL BENZOXAZINES” (FMC CORPORATION, priority 2022, published 2026)
